Experimental data as given in ChEMBL document CHEMBL6177985, “Discovery of Novel Cyclic Peptides as SMAD2-SMAD4 Interaction Inhibitors for the Treatment of Hepatic Fibrosis” (J Med Chem, 2025).
Activity calls are given as the source filed them. The rule behind the calls is not given here.

Columns and labels:
LX-2 [1] = assay: Downregulation of TGF-beta induced SMAD2 phosphorylation level in human LX-2 cells at 100 uM by Immunoblot analysis; assay type: functional, cell-based
LX-2 [2] = assay: Downregulation of TGF-beta induced alpha-SMA level in human LX-2 cells at 100 uM by Immunoblot analysis; assay type: functional, cell-based
LX-2 [3] = assay: Downregulation of TGF-beta induced COL1A1 level in human LX-2 cells at 100 uM by Immunoblot analysis; assay type: functional, cell-based
LX-2 [4] = assay: Antifibrotic activity against TGF-beta1 stimulated human LX-2 cells assessed as reduction in COL1A1 expression at 100 uM incubated for 24 hrs by Western blotting analysis; assay type: functional, cell-based
Homo sapiens = species: Homo sapiens; assay: Inhibition of TGF-beta induced his tagged human SMAD2/human SMAD4 interaction at 100 uM incubated for 1 hr followed by anti-His-HRP addition and measured after 1 hr by blocking assay relative to control; conditions: time 2.0 hrs
LX-2 [5] = assay: Antifibrotic activity against TGF-beta1 stimulated human LX-2 cells assessed as reduction in alpha-SMA expression at 100 uM incubated for 24 hrs by Western blotting analysis; assay type: functional, cell-based
LX-2 [6] = assay: Downregulation of TGF-beta induced P65 phosphorylation level in human LX-2 cells at 100 uM by Immunoblot analysis; assay type: functional, cell-based
[7] = Stability in rat serum measured up to 48 hrs by LC-MS/MS analysis; assay type: ADME, cell-free
Mus musculus [8] = assay: Anti-fibrotic activity against CCl4-induced liver fibrosis male C57BL/6J mouse model assessed as reduction in COL1A1 expression in liver at 400 microg/kg, ip measured for 3 weeks by Western blot analysis; assay type: functional, organism-based; conditions: dose 400.0 µg/kg
Mus musculus [9] = assay: Anti-fibrotic activity against CCl4-induced liver fibrosis male C57BL/6J mouse model assessed as reduction in alpha-SMA expression in liver at 400 microg/kg, ip measured for 3 weeks by Western blot analysis; assay type: functional, organism-based; conditions: dose 400.0 µg/kg
LX-2 [10] = assay: Inhibition of TGF-beta induced SMAD1/5/8 phosphorylation level in human LX-2 cells at 100 uM by Western blot analysis; assay type: functional, cell-based
Mus musculus [11] = species: Mus musculus; assay: Effect on gene expression in CCl4-induced male C57BL/6J mouse assessed as upregulation of genes associated with inflammatory response in liver tissue by RT-PCR analysis; assay type: functional, organism-based
LX-2 [12] = assay: Inhibition of TGF-beta induced SMAD3 phosphorylation level in human LX-2 cells at 100 uM by Western blot analysis; assay type: functional, cell-based
Mus musculus [13] = assay: Anti-fibrotic activity against CCl4-induced liver fibrosis male C57BL/6J mouse model assessed as reduction of AST level at 400 microg/kg, ip measured for 3 weeks by biochemical analysis; assay type: functional, organism-based; conditions: dose 400.0 µg/kg
Mus musculus [14] = assay: Anti-fibrotic activity against CCl4-induced liver fibrosis male C57BL/6J mouse model assessed as reduction in P65 phosphorylation level in liver at 400 microg/kg, ip measured for 3 weeks by Western blot analysis; assay type: functional, organism-based; conditions: dose 400.0 µg/kg
LX-2 [15] = assay: Inhibition of SMAD2 phosphorylation level in TGF-beta and TMSO induced human LX-2 cells at 300 uM by immunoblot analysis; assay type: functional, cell-based
Mus musculus [16] = assay: Anti-fibrotic activity against CCl4-induced liver fibrosis male C57BL/6J mouse model assessed as reduction in SMAD2 level in liver at 400 microg/kg, ip measured for 3 weeks by Western blot analysis; assay type: functional, organism-based; conditions: dose 400.0 µg/kg
LX-2 [17] = assay: Inhibition of HSC activation in TGFbeta-induced human LX-2 cells assessed as reduction in alpha-SMA by Western blot analysis; assay type: functional, cell-based; conditions: dose 25-100 µM
Mus musculus [18] = assay: Anti-fibrotic activity against CCl4-induced liver fibrosis male C57BL/6J mouse model assessed as effect on SMAD1/5/8 phosphorylation in liver at 400 microg/kg, ip measured for 3 weeks by Western blot analysis; assay type: functional, organism-based; conditions: dose 400.0 µg/kg
Mus musculus [19] = species: Mus musculus; assay: Effect on gene expression in CCl4-induced male C57BL/6J mouse assessed as change in genes associated with cellular component in liver tissue by RT-PCR analysis; assay type: functional, organism-based
Mus musculus [20] = assay: Anti-fibrotic activity against CCl4-induced liver fibrosis male C57BL/6J mouse model assessed as decrease in inflammatory infiltration at 400 microg/kg, ip measured for 3 weeks; assay type: functional, organism-based; conditions: dose 400.0 µg/kg
LX-2 [21] = assay: Inhibition of TGF-beta induced SMAD2 phosphorylation level in human LX-2 cells at 100 uM by Western blot analysis; assay type: functional, cell-based
Mus musculus [22] = species: Mus musculus; assay: Effect on gene expression in CCl4-induced male C57BL/6J mouse assessed as change in genes associated with molecular function in liver tissue by RT-PCR analysis; assay type: functional, organism-based
LX-2 [23] = assay: Inhibition of HSC activation in TGFbeta-induced human LX-2 cells assessed as reduction in COL1A1 at 100 uM by Western blot analysis; assay type: functional, cell-based
Mus musculus [24] = assay: Anti-fibrotic activity against CCl4-induced liver fibrosis male C57BL/6J mouse model assessed as effect on SMAD3 phosphorylation in liver at 400 microg/kg, ip measured for 3 weeks by Western blot analysis; assay type: functional, organism-based; conditions: dose 400.0 µg/kg
LX-2 [25] = assay: Inhibition of TGF-beta induced SMAD2 phosphorylation level in human LX-2 cells by Western blot analysis; assay type: functional, cell-based; conditions: dose 25-100 µM
LX-2 [26] = assay: Inhibition of HSC activation in TGFbeta-induced human LX-2 cells assessed as reduction in COL1A1 by Western blot analysis; assay type: functional, cell-based; conditions: dose 25-100 µM
Mus musculus [27] = species: Mus musculus; assay: Effect on gene expression in CCl4-induced male C57BL/6J mouse assessed as change in genes associated with biological process in liver tissue by RT-PCR analysis; assay type: functional, organism-based
Mus musculus [28] = assay: Anti-fibrotic activity against CCl4-induced liver fibrosis male C57BL/6J mouse model assessed as alleviation of COL1A1 level at 400 microg/kg, ip measured for 3 weeks by immunohistochemical staining based analysis; assay type: functional, organism-based; conditions: dose 400.0 µg/kg
Mus musculus [29] = assay: Anti-fibrotic activity against CCl4-induced liver fibrosis male C57BL/6J mouse model assessed as alleviation of alpha SMA level at 400 microg/kg, ip measured for 3 weeks by immunohistochemical staining based analysis; assay type: functional, organism-based; conditions: dose 400.0 µg/kg
Mus musculus [30] = species: Mus musculus; assay: Effect on gene expression in CCl4-induced male C57BL/6J mouse assessed as upregulation of genes associated with collagen deposition in liver tissue by RT-PCR analysis; assay type: functional, organism-based
Mus musculus [31] = assay: Anti-fibrotic activity against CCl4-induced liver fibrosis male C57BL/6J mouse model assessed as decrease in collagen deposition at 400 microg/kg, ip measured for 3 weeks; assay type: functional, organism-based; conditions: dose 400.0 µg/kg
Mus musculus [32] = assay: Anti-fibrotic activity against CCl4-induced liver fibrosis male C57BL/6J mouse model assessed as reduction of ALT level at 400 microg/kg, ip measured for 3 weeks by biochemical analysis; assay type: functional, organism-based; conditions: dose 400.0 µg/kg
LX-2 [33] = assay: Inhibition of HSC activation in TGFbeta-induced human LX-2 cells assessed as reduction in alpha-SMA at 100 uM by Western blot analysis; assay type: functional, cell-based

Q: What does the source list for C[C@H](NC(=O)[C@@H]1CCCN1C(=O)[C@H](CCCNC(=N)N)NC(=O)[C@@H](N)[C@@H](C)O)C(=O)N[C@@H](CO)C(=O)N[C@H](Cc1ccccc1)C(=O)N[C@@H](Cc1c[nH]c2ccccc12)C(=O)N[C@@H](CCC(=O)O)C(=O)N[C@H](C(=O)N[C@@H](CO)C(=O)O)[C@@H](C)O?
A: Activity (LX-2 [1]): Active; Activity (LX-2 [2]): Active; Activity (LX-2 [3]): Active; Activity (LX-2 [4]): Active; inhibition (Homo sapiens): 71.3%; Activity (LX-2 [5]): Active; Activity (LX-2 [6]): Active; Stability [7]: Stable

Q: With C[C@@H]1NC(=O)[C@@H]2CCCN2C(=O)[C@H](CCCNC(=N)N)NC(=O)[C@H]([C@@H](C)O)NC(=O)[C@H](CO)NC(=O)[C@H]([C@@H](C)O)NC(=O)[C@H](CCC(=O)O)NC(=O)[C@H](Cc2c[nH]c3ccccc23)NC(=O)[C@@H](Cc2ccccc2)NC(=O)[C@H](CO)NC1=O as the molecule, how does the Activity (Mus musculus [8]) read?
A: Active; Compound Showed Superior Effect Than M10

Q: What about the Activity (Mus musculus [9]) of the same molecule?
A: Active; Compound Showed Superior Effect Than M10

Q: And the inhibition (LX-2 [10])?
A: inactive

Q: What about the Activity (Mus musculus [11]) of the same molecule?
A: Active

Q: And the inhibition (LX-2 [12])?
A: inactive

Q: And the Activity (Mus musculus [13])?
A: Active

Q: What about the Activity (LX-2 [1]) of the same molecule?
A: Active

Q: And the Activity (Mus musculus [14])?
A: Active; Compound Showed Superior Effect Than M10

Q: And the Activity (LX-2 [2])?
A: Active

Q: What about the inhibition (LX-2 [15]) of the same molecule?
A: inactive

Q: What about the Activity (Mus musculus [16]) of the same molecule?
A: Active; Compound Showed Superior Effect Than M10

Q: What about the Activity (LX-2 [3]) of the same molecule?
A: Active

Q: What about the Activity (LX-2 [4]) of the same molecule?
A: Active

Q: What about the inhibition (LX-2 [17]) of the same molecule?
A: Dose-dependent-effect

Q: What about the Activity (Mus musculus [18]) of the same molecule?
A: inactive

Q: What about the inhibition (Homo sapiens) of the same molecule?
A: 85.6%

Q: What about the Activity (Mus musculus [19]) of the same molecule?
A: Active

Q: What about the Activity (Mus musculus [20]) of the same molecule?
A: Active; Compound Showed Higher Efficacy Than M10

Q: What about the Activity (LX-2 [5]) of the same molecule?
A: Active

Q: And the inhibition (LX-2 [21])?
A: Active

Q: And the Activity (Mus musculus [22])?
A: Active

Q: What about the Activity (LX-2 [6]) of the same molecule?
A: Active

Q: What about the inhibition (LX-2 [23]) of the same molecule?
A: Active

Q: What about the Activity (Mus musculus [24]) of the same molecule?
A: inactive

Q: And the inhibition (LX-2 [25])?
A: Dose-dependent-effect

Q: And the inhibition (LX-2 [26])?
A: Dose-dependent-effect

Q: And the Stability [7]?
A: Stable

Q: And the Activity (Mus musculus [27])?
A: Active

Q: And the Activity (Mus musculus [28])?
A: Active

Q: And the Activity (Mus musculus [29])?
A: Active

Q: And the Activity (Mus musculus [30])?
A: Active

Q: What about the Activity (Mus musculus [31]) of the same molecule?
A: Active; Compound Showed Higher Efficacy Than M10

Q: What about the Activity (Mus musculus [32]) of the same molecule?
A: Active

Q: And the inhibition (LX-2 [33])?
A: Active

Q: Which inhibition (LX-2 [10]) does the source give for C[C@H](NC(=O)[C@@H]1CCCN1C(=O)[C@H](CCCNC(=N)N)NC(=O)[C@@H](N)[C@@H](C)O)C(=O)N[C@@H](CO)C(=O)N[C@@H](Cc1ccccc1)C(=O)N[C@@H](Cc1c[nH]c2ccccc12)C(=O)N[C@@H](CCC(=O)O)C(=O)N[C@H](C(=O)N[C@@H](CO)C(=O)O)[C@@H](C)O here?
A: inactive

Q: And the inhibition (LX-2 [12])?
A: inactive

Q: And the Activity (LX-2 [4])?
A: Active

Q: And the Activity (Mus musculus [18])?
A: inactive

Q: And the inhibition (Homo sapiens)?
A: 52.5%

Q: What about the Activity (LX-2 [5]) of the same molecule?
A: Active

Q: What about the Activity (Mus musculus [24]) of the same molecule?
A: inactive

Q: Which Activity (LX-2 [4]) does the source give for H-TRPASWWETS-OH here?
A: inactive

Q: What about the inhibition (Homo sapiens) of the same molecule?
A: 43.8%

Q: What about the Activity (LX-2 [5]) of the same molecule?
A: inactive

Q: Which Activity (LX-2 [4]) does the source give for H-TRPASYWETS-OH here?
A: inactive

Q: What about the inhibition (Homo sapiens) of the same molecule?
A: 20.7%

Q: And the Activity (LX-2 [5])?
A: inactive

Q: With H-TRPAWFWETS-OH as the molecule, how does the Activity (LX-2 [4]) read?
A: inactive

Q: And the inhibition (Homo sapiens)?
A: 21.3%

Q: And the Activity (LX-2 [5])?
A: inactive
